Counter-ions that a name gives are not always drawn.

T1 sequence (P37288 whole entry): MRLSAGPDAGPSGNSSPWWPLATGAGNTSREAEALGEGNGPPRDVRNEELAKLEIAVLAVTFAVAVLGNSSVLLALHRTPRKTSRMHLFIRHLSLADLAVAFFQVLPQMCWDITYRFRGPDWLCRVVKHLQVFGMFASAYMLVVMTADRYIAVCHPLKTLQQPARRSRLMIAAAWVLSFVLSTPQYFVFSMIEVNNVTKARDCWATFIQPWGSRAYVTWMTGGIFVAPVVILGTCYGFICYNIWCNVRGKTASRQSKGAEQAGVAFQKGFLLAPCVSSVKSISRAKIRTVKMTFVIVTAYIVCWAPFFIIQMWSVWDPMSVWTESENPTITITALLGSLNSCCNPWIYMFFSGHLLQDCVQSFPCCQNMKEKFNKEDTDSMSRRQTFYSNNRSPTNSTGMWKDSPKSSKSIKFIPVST

The test has as its target T1, human Arginine Vasopressin Receptor 1a (AVPR1a) (Homo sapiens, UniProt P37288).
T1 construct: expressed in transfected cells; host or cells: CHO (CHO-AVPR1a, kept under G418 selection)
Put plainly: Vasopressin V1a receptor antagonist assay (FLIPR calcium, CHO-AVPR1a cells). It is filed as cell-based. The method, then:
The purpose of this assay was to determine the inhibitory effect of synthesized compounds on the Vasopressin V1a receptor. The assay was performed in Chinese Hamster Ovary (CHO) cells expressing the human Arginine Vasopressin Receptor 1a (AVPR1a). Arginine Vasopressin (AVP) evokes an increase in intracellular calcium in CHO-AVPR1a cells which is measured in a fluorescence assay on the FLIPR^TETRA using calcium sensitive dyes. Test compounds were assessed for their ability to affect the magnitude of the response to AVP, with antagonists showing a concentration-dependent reduction in the AVP-mediated fluorescence. Compounds were tested in duplicate in a 10-point, 1:3 dilution series starting at a nominal concentration of 3 μM in the assay.
CHO-AVPR1a cells were maintained in routine culture in T175 Flasks at 37° C., 5% CO2. The growth medium consists of Ham's F12 media supplemented with 10% v/v fetal bovine serum, 1× non-essential amino acids, and 0.4 mg/ml Geneticin G418.
On day one, cells were harvested from T175 flasks when they are 80-90% confluent by first washing the cell monolayer with PBS and then dissociated using trypsin 0.05%/EDTA (3 mL for a T175 Flask). The flasks were incubated at room temperature until the cells detached. To the cell suspension, 10 ml of growth media was added and the cell density determined using the Vi-Cell automated cell counter. The cells were spun at 1000 rpm for 3 minutes, then the supernatant was carefully removed and discarded. The cell pellet was re-suspended at 6.0e^5 cells/ml in growth media. 25 μL of cells in growth media was dispensed into each well (15,000 cells per well) of a poly-D-lysine coated black, clear bottomed, 384-well plate. The plates were incubated at 37° C., 5% CO2 overnight.
At the start of each assay day, the potency of AVP was assessed and an EC80 concentration determined for subsequent compound profiling. Assays were performed using a two-step addition protocol on the FLIPR^TETRA; first addition of 5 μl of control or test compound at 10× final in assay buffer with 15 min incubation at 37° C., 5% CO2 followed by 10 μl of AVP at 6× final concentration in assay buffer. Changes in fluorescence were monitored for 3 min after both additions on the FLIPR^TETRA using 470-495 nm excitation and 515-575 nm emission wavelengths. The assay buffer consisted of HBSS (+Ca/+Mg) supplemented with 20 mM HEPES, and for the preparation of the AVP agonist only, 0.1% w/v bovine serum albumin. The assay was initiated by the removal of growth media from the cells and replacement with 45 μl of Calcium-6 dye (Molecular Devices) prepared at 1× in assay buffer. Cells were loaded with dye for 60-90 min at 37° C., 5% CO2 before initiation of the FLIPR^TETRA protocol. […] For compound profiling, test compounds were first serially diluted in DMSO (10-point curve, 1:3 dilutions) then diluted 33.3-fold in assay buffer prior to addition to the dye loaded cells on the FLIPR^TETRA. At the end of the incubation period, 10 μl of AVP in assay buffer containing 0.1% BSA was added at the previously determined EC80 concentration.
In-plate controls for the assay included balovaptan and PF-184563 concentration-response curves as reference V1a antagonists, and an AVP concentration-response curve to confirm the reproducibility of the EC80 used for the compound challenge.
Turning to `O=C(N1CC2(C1)CN(c1ccccn1)C2)N1CCC(O)c2cc(Cl)ccc21` (stereo not drawn) [13-2], the IC50 was < 100 nM. With `CC1COc2cc(F)ccc2N1C(=O)N1CC2(C1)CN(c1cccnn1)C2` (single isomer, unassigned) [1-62-A], the IC50 was ≥ 1000 nM. `CC1COc2cc(Cl)c(F)cc2N1C(=O)N1CC2(C1)CN(c1ncccn1)C2` (single isomer, unassigned) [19-2-A]: the IC50 is 100 to 500 nM. As for `COc1ccnc(N2CC3(CN(C(=O)N4CCOc5cc(Cl)ccc54)C3)C2)n1` [1-47], the figure is < 100 nM. For `CC1COc2cc(Cl)ccc2N1C(=O)N1CC2(C1)CN(c1ncccc1F)C2` (stereo not drawn) [1-57], the IC50 was < 100 nM. For `Cc1nccnc1N1CC2(CN(C(=O)N3CCOc4cc(Cl)ccc43)C2)C1` [1-21], the IC50 was < 100 nM. As for `Cc1ccc(N2CC3(CN(C(=O)N4CCOc5cc(Cl)ccc54)C3)C2)nc1` [1-13], the IC50 is < 100 nM.

With `CC1COc2cc(F)ccc2N1C(=O)N1CC2(C1)CN(c1ccccn1)C2` (single isomer, unassigned) [1-66-A], the IC50 is ≥ 1000 nM. Take `CC1(C)CCN(C(=O)N2CC3(C2)CN(c2ccc(F)cn2)C3)c2ccc(Cl)cc21` [9-9]: the IC50 was < 100 nM. In the case of `CC1COc2cc(Cl)ccc2N1C(=O)N1CC2(C1)CN(c1ncc(F)cn1)C2` (single isomer, unassigned) [18-2-A], the IC50 is < 100 nM. With `Cc1ccc(N2CC3(CN(C(=O)N4CCOc5cc(Cl)ccc54)C3)C2)nn1` [1-26], the IC50 lay in the range of 100 to 500 nM. Take `CC1COc2cc(Cl)ccc2N1C(=O)N1CC2(C1)CN(c1ncc(C3CC3)cn1)C2` (stereo not drawn) [21-7]: the IC50 was 100 to 500 nM. The result for `O=C(N1CC2(CN(Cc3ccncc3)C2)C1)N1CCOc2cc(Cl)ccc21` [2-1, (7-chloro-2,3-dihydro-4H-benzo[b][1,4]oxazin-4-yl)(6-(pyridin-4-ylmethyl)-2,6-diazaspiro[3.3]heptan-2-yl)methanone] reads ≥ 1000 nM; that for `COc1ccc2c(c1)OCC(C)N2C(=O)N1CC2(C1)CN(c1ccc(F)cn1)C2` (stereo not drawn) [1-59], < 100 nM; that for `O=C(N1CC2(C1)CN(c1ccc(F)cn1)C2)N1CCCS(=O)(=O)c2cc(Cl)ccc21` [1-75], ≥ 1000 nM.

In the case of `CC1COc2cc(Cl)ccc2N1C(=O)N1CC2(C1)CN(c1nn(C)c3ncccc13)C2` (single isomer, unassigned) [20-15-A], the IC50 was 100 to 500 nM. As to `CC1COc2cc(Cl)ccc2N1C(=O)N1CC2(C1)CN(c1nccc(C#N)n1)C2` (single isomer, unassigned) [20-16-A], the half-maximal inhibitory concentration (IC50) was ≥ 1000 nM. Consider `O=C(N1CC2(C1)CN(c1ccc(F)cn1)C2)N1CCC(O)c2c1ccc(Cl)c2F` (stereo not drawn) [13-5], for which the IC50 was < 100 nM. On to `CC1COc2cc(F)ccc2N1C(=O)N1CC2(C1)CN(c1cccnn1)C2` (single isomer, unassigned) [1-62-B], for which the IC50 is < 100 nM. As for `O=C(N1CC2(C1)CN(c1n[nH]c3ccccc13)C2)N1CCOc2cc(Cl)ccc21` [1-82], the figure is < 100 nM; as for `Cc1cnc(N2CC3(CN(C(=O)N4c5ccc(Cl)cc5OCC4C)C3)C2)cn1` (stereo not drawn) [20-5], < 100 nM. With `COc1ccnc(N2CC3(CN(C(=O)N4c5ccc(Cl)cc5OCC4C)C3)C2)c1` (single isomer, unassigned) [20-8-A], the IC50 fell in the range of 100 to 500 nM. `N#Cc1ccc(N2CC3(CN(C(=O)N4CCOc5cc(Cl)ccc54)C3)C2)nc1` [1-16]: the IC50 is 100 to 500 nM.

On to `CC1COc2cc(F)ccc2N1C(=O)N1CC2(C1)CN(c1ncc(F)cn1)C2` (single isomer, unassigned) [18-4-A], for which the IC50 is ≥ 1000 nM. The result for `O=C(N1CC2(C1)CN(c1ccc(F)cn1)C2)N1CCCc2cc(Cl)ccc21` [9-8] reads < 100 nM; that for `O=C(N1CC2(C1)CN(c1ccc(C(F)(F)F)cn1)C2)N1CCOc2cc(Cl)ccc21` [1-31], 100 to 500 nM. Consider `O=C(N1CC2(C1)CN(c1cnc(Br)cn1)C2)N1CCOc2cc(Cl)ccc21` [1-19], for which the IC50 was < 100 nM. As for `O=C(N1CC2(C1)CN(c1ncccc1F)C2)N1CCC(O)c2cc(Cl)ccc21` (single isomer, unassigned) [13-4-A], the IC50 is < 100 nM. The result for `CCC1COc2cc(F)ccc2N1C(=O)N1CC2(C1)CN(c1ccc(F)cn1)C2` (stereo not drawn) [1-56] reads < 100 nM; that for `O=C(N1CC2(C1)CN(c1ccc(F)cn1)C2)N1CCSc2cc(Cl)ccc21` [8-15], < 100 nM; that for `CC1COc2cc(Cl)ccc2N1C(=O)N1CC2(C1)CN(c1noc3cccnc13)C2` (single isomer, unassigned) [18-3-A], ≥ 1000 nM.

Take `Cc1cc(N2CC3(CN(C(=O)N4CCOc5cc(Cl)ccc54)C3)C2)ncc1C#N` [1-29]: the IC50 is < 100 nM. As to `CN1CCN(C(=O)N2CC3(C2)CN(c2ccc(F)cn2)C3)c2ccc(F)cc21` [8-8], the IC50 is < 100 nM.

Take `O=C(N1CC2(C1)CN(c1ccncn1)C2)N1CCOc2cc(Cl)ccc21` [1-74]: the IC50 lay within 100 to 500 nM. As to `O=C(N1CC2(C1)CN(c1cc(C(F)F)ccn1)C2)N1CCOc2cc(Cl)ccc21` [1-80], the IC50 was < 100 nM.

On to `CC1COc2cc(Cl)ccc2N1C(=O)N1CC2(C1)CN(c1ncccn1)C2` (single isomer, unassigned) [1-83-A], for which the IC50 lay in the range of 100 to 500 nM. In the case of `CC1COc2cc(F)ccc2N1C(=O)N1CC2(C1)CN(c1cccnn1)C2` (stereo not drawn) [1-62], the IC50 was < 100 nM. As for `CC1COc2cc(Cl)ccc2N1C(=O)N1CC2(C1)CN(c1cnccn1)C2` (stereo not drawn) [1-58], the IC50 was < 100 nM. Turning to `Cc1ccnc(N2CC3(CN(C(=O)N4c5ccc(Cl)cc5OCC4C)C3)C2)n1` (single isomer, unassigned) [20-12-A], the IC50 is ≥ 1000 nM.

For the compound `CC1COc2cc(F)ccc2N1C(=O)N1CC2(C1)CN(c1cnccn1)C2` (single isomer, unassigned) [1-65-A], the IC50 was ≥ 1000 nM. Turning to `Cc1ccnc(N2CC3(CN(C(=O)N4c5ccc(F)cc5OCC4C)C3)C2)c1` (stereo not drawn) [20-4], the IC50 is < 100 nM. The result for `COc1cccnc1N1CC2(CN(C(=O)N3CCOc4cc(Cl)ccc43)C2)C1` [1-6] reads < 100 nM; that for `CC1COc2cc(Cl)ccc2N1C(=O)N1CC2(C1)CN(c1cccnc1)C2` (single isomer, unassigned) [20-1-A], ≥ 1000 nM; that for `Cc1cc(N2CC3(CN(C(=O)N4CCOc5cc(Cl)ccc54)C3)C2)ccn1` [1-36], ≥ 1000 nM.

Turning to `CC1COc2cc(F)ccc2N1C(=O)N1CC2(C1)CN(c1cc(C#N)ccn1)C2` (single isomer, unassigned) [20-3-A], the IC50 was ≥ 1000 nM.

Consider `O=C(N1CC2(C1)CN(c1cncc(F)c1)C2)N1CCOc2cc(Cl)ccc21` [1-7], for which the IC50 was 100 to 500 nM. Regarding `COc1ccc(N2CC3(CN(C(=O)N4CCOc5cc(Cl)ccc54)C3)C2)cn1` [8-1, (7-chloro-2,3-dihydro-4H-benzo[b][1,4]oxazin-4-yl)(6-(6-methoxypyridin-3-yl)-2,6-diazaspiro[3.3]heptan-2-yl)methanone], the IC50 was in the range of 100 to 500 nM. Take `O=C(N1CC2(C1)CN(c1ccn3ccnc3c1)C2)N1CCOc2cc(Cl)ccc21` [5-1, (7-chloro-2,3-dihydro-4H-benzo[b][1,4]oxazin-4-yl)(6-(imidazo[1,2-a]pyridin-7-yl)-2,6-diazaspiro[3.3]heptan-2-yl)methanone formate]: the IC50 is 100 to 500 nM. The result for `O=C(N1CC2(C1)CN(c1ccc(F)cn1)C2)N1CCOc2ccncc21` [8-6] reads ≥ 1000 nM.

On to `CC(c1cccnc1)N1CC2(CN(C(=O)N3CCOc4cc(Cl)ccc43)C2)C1` (stereo not drawn) [2-4], for which the IC50 was ≥ 1000 nM.

Turning to `CCC1COc2cc(Cl)ccc2N1C(=O)N1CC2(C1)CN(c1ccc(F)cn1)C2` (stereo not drawn) [1-55], the IC50 was < 100 nM.

Take `CC(C)(C)OC(=O)N1CC2(C1)CN(C(=O)N1CCOc3cc(Cl)ccc31)C2` [1-61]: the IC50 is 500 to 1000 nM. Take `CN1Cc2cnc(N3CC4(CN(C(=O)N5CCOc6cc(Cl)ccc65)C4)C3)nc2C1` [1-28]: the IC50 is ≥ 1000 nM. On to `CC1COc2cc(F)c(F)cc2N1C(=O)N1CC2(C1)CN(c1ccc(F)cn1)C2` (single isomer, unassigned) [19-5-A], for which the IC50 fell in the range of 100 to 500 nM.
